The NIST ThermoML archive (doi:10.1016/j.jct.2017.10.002)
Several values for one entry are separate records, joined by “and”; a condition that tells them apart may be missing. Equal values may be shown once.

Details: 101.33 kPa, relaxation calorimetry

CCc1ncc[n-]1.CCc1ncc[n-]1.[Zn+2] [zinc(II) 2-ethylimidazolide]
molar entropy
Details | Crystal | Glass
1 K | – | 0.008253 J/K/mol
2 K | – | 0.0244 J/K/mol
3 K | – | 0.06286 J/K/mol
4 K | – | 0.1418 J/K/mol
5 K | 0.3545 J/K/mol and 0.1203 J/K/mol and 0.3132 J/K/mol | 0.2736 J/K/mol
6 K | 0.5863 J/K/mol and 0.2089 J/K/mol and 0.5177 J/K/mol | 0.464 J/K/mol
7 K | 0.8825 J/K/mol and 0.3306 J/K/mol and 0.7801 J/K/mol | 0.7139 J/K/mol
8 K | 1.241 J/K/mol and 0.4909 J/K/mol and 1.099 J/K/mol | 1.022 J/K/mol
9 K | 1.66 J/K/mol and 0.6925 J/K/mol and 1.472 J/K/mol | 1.385 J/K/mol
10 K | 2.135 J/K/mol and 0.9364 J/K/mol and 1.895 J/K/mol | 1.801 J/K/mol
15 K | 5.252 J/K/mol and 2.784 J/K/mol and 4.686 J/K/mol | 4.579 J/K/mol
20 K | 9.321 J/K/mol and 5.606 J/K/mol and 8.386 J/K/mol | 8.3 J/K/mol
25 K | 14.04 J/K/mol and 9.263 J/K/mol and 12.76 J/K/mol | 12.73 J/K/mol
30 K | 19.18 J/K/mol and 13.59 J/K/mol and 17.67 J/K/mol | 17.72 J/K/mol
35 K | 24.62 J/K/mol and 18.45 J/K/mol and 23 J/K/mol | 23.14 J/K/mol
40 K | 30.28 J/K/mol and 23.75 J/K/mol and 28.69 J/K/mol | 28.89 J/K/mol
45 K | 36.11 J/K/mol and 29.41 J/K/mol and 34.67 J/K/mol | 34.85 J/K/mol
50 K | 42.08 J/K/mol and 35.35 J/K/mol and 40.84 J/K/mol | 40.96 J/K/mol
60 K | 54.27 J/K/mol and 47.75 J/K/mol and 53.56 J/K/mol | 53.5 J/K/mol
70 K | 66.58 J/K/mol and 60.58 J/K/mol and 66.61 J/K/mol | 66.3 J/K/mol
80 K | 78.9 J/K/mol and 73.57 J/K/mol and 79.79 J/K/mol | 79.14 J/K/mol
90 K | 91.13 J/K/mol and 86.51 J/K/mol and 92.92 J/K/mol | 91.86 J/K/mol
100 K | 103.17 J/K/mol and 99.26 J/K/mol and 105.89 J/K/mol | 104.37 J/K/mol
110 K | 114.97 J/K/mol and 111.76 J/K/mol and 118.62 J/K/mol | 116.61 J/K/mol
120 K | 126.51 J/K/mol and 123.99 J/K/mol and 131.07 J/K/mol | 128.56 J/K/mol
130 K | 137.77 J/K/mol and 135.92 J/K/mol and 143.23 J/K/mol | 140.23 J/K/mol
140 K | 148.77 J/K/mol and 147.57 J/K/mol and 155.11 J/K/mol | 151.61 J/K/mol
150 K | 159.51 J/K/mol and 158.95 J/K/mol and 166.72 J/K/mol | 162.74 J/K/mol
160 K | 170.01 J/K/mol and 170.08 J/K/mol and 178.07 J/K/mol | 173.62 J/K/mol
170 K | 180.29 J/K/mol and 180.98 J/K/mol and 189.19 J/K/mol | 184.28 J/K/mol
180 K | 190.36 J/K/mol and 191.68 J/K/mol and 200.09 J/K/mol | 194.75 J/K/mol
190 K | 200.25 J/K/mol and 202.19 J/K/mol and 210.8 J/K/mol | 205.03 J/K/mol
200 K | 209.96 J/K/mol and 212.52 J/K/mol and 221.34 J/K/mol | 215.14 J/K/mol
210 K | 219.52 J/K/mol and 222.71 J/K/mol and 231.73 J/K/mol | 225.11 J/K/mol
220 K | 228.95 J/K/mol and 232.75 J/K/mol and 241.97 J/K/mol | 234.95 J/K/mol
230 K | 238.24 J/K/mol and 242.68 J/K/mol and 252.1 J/K/mol | 244.67 J/K/mol
240 K | 247.43 J/K/mol and 252.5 J/K/mol and 262.12 J/K/mol | 254.28 J/K/mol
250 K | 256.52 J/K/mol and 262.22 J/K/mol and 272.04 J/K/mol | 263.8 J/K/mol
260 K | 265.53 J/K/mol and 271.86 J/K/mol and 281.89 J/K/mol | 273.23 J/K/mol
270 K | 274.45 J/K/mol and 281.43 J/K/mol and 291.67 J/K/mol | 282.58 J/K/mol
273.15 K | 277.25 J/K/mol and 284.43 J/K/mol and 294.74 J/K/mol | 285.51 J/K/mol
280 K | 283.31 J/K/mol and 290.94 J/K/mol and 301.39 J/K/mol | 291.87 J/K/mol
290 K | 292.12 J/K/mol and 300.39 J/K/mol and 311.06 J/K/mol | 301.09 J/K/mol
298.15 K | 299.26 J/K/mol and 308.06 J/K/mol and 318.92 J/K/mol | 308.57 J/K/mol
300 K | 300.87 J/K/mol and 309.8 J/K/mol and 320.7 J/K/mol | 310.26 J/K/mol
